In brackets after ≈: the same amount, converted by molar mass.
Legend:
[1] = system: Sarcoma 180 ascites cells; experiment: Effect on Sarcoma 180 carcinoma: intraperitoneal inoculation, mean survival days; assay type: in vivo, ICR-strain mice; conditions: 200 mg/kg, once a day for 7 days
Procedure: Sarcoma 180 ascites cells (1×10^6 cells/head) were inocualted intraperitoneally into ICR-strain mice (female, 6 weeks old, each group consisting of 4 or 5 mice), and after 24 hours, the intraperitoneal administration of a test drug was started, and effected once a day for 7 days. The effect thereof was judged from the mean survival days. The test drug was used in the form of a solution or suspension in a saline solution or a 0.3% carboxymethyl cellulose-containing saline solution. [formula]

[2] = system: Ehrlich cells; experiment: MIC value against Ehrlich cells (microplate method); assay type: cell-based; conditions: 96 h, 2×10^4 cells/ml, 4 days, Giemsa staining
Description: (§1) a. MIC value against HeLa S3 cells and Ehrlich cells (microplate method) Number of cells: 2×10^4 cells/ml Culture medium: Eagle's MEM+20% calf embryonic serum Culture time: 4 days Judgement: Giemsa staining

[3] = system: Ehrlich ascites carcinoma cells; experiment: Effect on Ehrlich carcinoma (i): intraperitoneal inoculation, mean survival days; assay type: in vivo, ICR-strain mice; conditions: Mus musculus, ip, 168 h, once a day for 7 days, read-out: T/C (mean survival days)
Procedure: (i) Ehrlich ascites carcinoma cells (1×10^6 cells/head) were inoculated intraperitoneally into ICR-strain mice (female, 6 to 7 weeks old, each group consisting of 5 or 4 mice), and after 24 hours, the […] The effect thereof was judged from the mean survival days.
The test drugs were used in the form of a solution or suspension in a saline solution or a 0.3% carboxymethyl cellulose-containing saline solution. [formula]

[4] = system: HeLa S3 cells; experiment: MIC value against HeLa S3 cells (microplate method); assay type: cell-based; conditions: Homo sapiens, 96 h, 2×10^4 cells/ml, 4 days, Giemsa staining
Description: as §1

[5] = Acute toxicity; conditions: mouse, in vivo, ip
Description: The test drugs were used in the form of a solution or suspension in a saline solution or a 0.3% carboxymethyl cellulose-containing saline solution.

[6] = intraperitoneal, once, male mice, observed for 7 days

Row | SMILES | MIC [2] | MIC [4] | LD50 at 168 h [5, 6] | other results
1 | CCCCCCN1CCN(Cc2ccc(Nc3ccccn3)cc2)C(=O)C1=O [Compound 1] | 0.2 µg/mL (≈ 0.526 µM) | 0.2 µg/mL (≈ 0.526 µM) |  | T/C (mean survival days) [1]: > 151.6%; Survival Ratio in Days Shown in Parenthesis ([1]; 35 days): 2/4; response vs control in vivo at 200 mg/kg ([3]; 200 mg/kg): > 221%; LD50 at 168 h [5]: > 500 mg/kg
2 | O=C1C(=O)N(Cc2ccc(Nc3ccccn3)cc2)CCN1Cc1ccccc1 [Compound 2] | 0.39 to 0.78 µg/mL (≈ 1.01 to 2.02 µM) | 0.39 to 0.78 µg/mL (≈ 1.01 to 2.02 µM) | > 200 mg/kg | response vs control in vivo at 100 mg/kg [3]: > 192%
3 | O=C1C(=O)N(Cc2ccc(Nc3ccc([N+](=O)[O-])cn3)cc2)CCN1Cc1ccccc1 [Compound 3] | 6.25 µg/mL (≈ 14.5 µM) | 3.13 to 6.25 µg/mL (≈ 7.25 to 14.5 µM) |  | 
4 | O=C1C(=O)N(c2ccccc2)CCN1Cc1ccc(Nc2ncccn2)cc1 [Compound 12] | 0.78 µg/mL (≈ 2.09 µM) | 0.78 µg/mL (≈ 2.09 µM) | > 500 mg/kg | 
5 | O=C1C(=O)N(Cc2ccc(Nc3ncccn3)cc2)CCN1CCc1ccccc1 [Compound 14] | 0.39 µg/mL (≈ 0.971 µM) | 0.39 µg/mL (≈ 0.971 µM) | > 500 mg/kg | response vs control in vivo at 100 mg/kg [3]: > 179%
6 | O=C1C(=O)N(Cc2ccc(Nc3ncccn3)cc2)CCN1CCCc1ccccc1 [Compound 15] | 1.56 µg/mL (≈ 3.75 µM) | 1.56 µg/mL (≈ 3.75 µM) | > 500 mg/kg | 
7 | CCCCCCN1CCN(Cc2ccc(Nc3ccncn3)cc2)C(=O)C1=O [Compound 19] | 1.56 µg/mL (≈ 4.09 µM) | 1.56 µg/mL (≈ 4.09 µM) | > 500 mg/kg | 
8 | O=C1C(=O)N(Cc2ccc(Nc3ccncn3)cc2)CCN1Cc1ccccc1 [Compound 20] | 1.56 µg/mL (≈ 4.03 µM) | 0.78 µg/mL (≈ 2.01 µM) | > 500 mg/kg | 
9 | O=C1C(=O)N(Cc2ccc(Nc3ncccn3)cc2)CCN1Cc1ccc(Nc2ncccn2)cc1 [Compound 23] | 6.25 µg/mL (≈ 13 µM) | 6.25 µg/mL (≈ 13 µM) |  | response vs control in vivo at 100 mg/kg [3]: 159%
10 | O=C1C(=O)N(Cc2ccc(Nc3ccccn3)cc2)CCN1Cc1ccc(Nc2ccccn2)cc1 [Compound 24] | 3.13 µg/mL (≈ 6.54 µM) | 3.13 µg/mL (≈ 6.54 µM) |  | 

The next lines start with results.

Row | MIC [2] | MIC [4] | SMILES | LD50 at 168 h [5, 6] | other results
11 | 3.13 µg/mL (≈ 8.23 µM) | 3.13 µg/mL (≈ 8.23 µM) | CCCCCCN1CCN(Cc2ccc(Nc3ccncc3)cc2)C(=O)C1=O [Compound 5] |  | 
12 | 0.39 µg/mL (≈ 1.04 µM) | 0.78 µg/mL (≈ 2.08 µM) | O=C1C(=O)N(c2cnccn2)CCN1Cc1ccc(Nc2ncccn2)cc1 [Compound 8] |  | 
13 | 6.25 µg/mL (≈ 16 µM) | 1.56 to 3.13 µg/mL (≈ 4.01 to 8.04 µM) | O=C1C(=O)N(Cc2cnccn2)CCN1Cc1ccc(Nc2ncccn2)cc1 [Compound 9] |  | 
14 | 12.5 µg/mL (≈ 31 µM) | 1.56 to 3.13 µg/mL (≈ 3.87 to 7.76 µM) | Nc1cccc(CN2CCN(Cc3ccc(Nc4ncccn4)cc3)C(=O)C2=O)n1 [Compound 10] |  | 
15 | 1.56 µg/mL (≈ 3.96 µM) | 1.56 µg/mL (≈ 3.96 µM) | O=C1C(=O)N(CC2CCCCC2)CCN1Cc1ccc(Nc2ncccn2)cc1 [Compound 11] |  | 
16 | 1.56 µg/mL (≈ 3.7 µM) | 1.56 µg/mL (≈ 3.7 µM) | O=C1C(=O)N(Cc2ccc(Nc3ncccn3)cc2)CCN1Cc1ccc(Cl)cc1 [Compound 16] |  | 
17 | 6.25 µg/mL (≈ 14 µM) | 6.25 µg/mL (≈ 14 µM) | COC(=O)c1ccc(CN2CCN(Cc3ccc(Nc4ncccn4)cc3)C(=O)C2=O)cc1 [Compound 17] |  | 
18 | 6.25 µg/mL (≈ 15.6 µM) | 3.13 µg/mL (≈ 7.8 µM) | CC(c1ccccc1)N1CCN(Cc2ccc(Nc3ncccn3)cc2)C(=O)C1=O (centres unmarked) [Compound 18] |  | 
19 | 1.56 µg/mL (≈ 4.09 µM) | 1.56 µg/mL (≈ 4.09 µM) | CCCCCCN1CCN(Cc2ccc(Nc3cnccn3)cc2)C(=O)C1=O [Compound 21] |  | 
20 | 6.25 µg/mL (≈ 15.6 µM) | 3.13 to 6.25 µg/mL (≈ 7.8 to 15.6 µM) | CC(c1ccc(Nc2ncccn2)cc1)N1CCN(Cc2ccccc2)C(=O)C1=O (centres unmarked) [Compound 22] |  | 

Reference: patent US4477664A, “Novel 1-(4-piperidiniobenzyl)-2,3-dioxopiperazine derivatives or acid addition salts thereof” (Toyama Chemical Co., Ltd., priority 1979, dated 1984)
